These results are taken from patent publication US4775671A, “Imidazodiazepines” (Hoffmann-La Roche Inc., priority 1984, dated 1988).

Data set [1] deals with spasmodic seizures caused by pentetrazole. Nature of the data set: Antipentetrazole test (anticonvulsant). The class given is in vivo. The settings on record: Rattus norvegicus, po, 0.5 h; female rats 60-80 g, p.o., 30 minutes before 120 mg/kg pentetrazole i.p.; protects 50% of animals. How it is done: The central properties of the compounds of formula I in accordance with the invention can be determined, for example, in the antipentetrazole test which is described hereinafter and which is generally recognized for recording anticonvulsant properties.
In this animal experiment the compound under investigation is administered orally to female rats weighing 60-80 g and 30 minutes later there are administered i.p. 120 mg/kg of pentetrazole, which causes emprosthotonus and tonic stretchings of the fore and/or hind limbs in unprotected experimental animals 1-4 minutes after the injection. Ten experimental animals are used per dosage of test substance. After counting the protected experimental animals the ED50 is determined according to the Probit method. The ED50 is that dosage which protects 50% of the experimental animals from the spasmodic seizures caused by pentetrazole.

Data set [2] in a line: Acute toxicity, single oral administration to mice. The settings on record: mouse, in vivo. An excerpt:
The results which have been obtained with representative members of the class of compound defined by general formula I in the experiments described previously are compiled in the following Table. Moreover, the Table contains data concerning the acute toxicity of some of these compounds (LD50 in mg/kg in the case of single oral administration to mice).

The target of data set [3] is central benzodiazepine receptors. Nature of the data set: Inhibition of binding of tritiated diazepam at specific benzodiazepine receptors in the cerebral cortex. The settings on record: 50 percent inhibition of specific binding of tritiated diazepam. The method, then:
The affinity of compounds of general formula I to the central benzodiazepine receptors was determined according to the method described in Life Science 20, 2101-2110 (1977) and Science 198, 849-851 ([…]). According to this method, the inhibition of the binding of tritiated diazepam at the specific benzodiazepine receptors in the cerebral cortex by the respective test substances is ascertained. The IC50 ("50% inhibiting concentration") is that concentration of the respective test substance which brings about a 50 percent inhibition of the specific binding of the tritiated diazepam at the specific benzodiazepine receptors in the cerebral cortex.

In turn, `Cc1noc(-c2ncn3c2[C@@H]2CCCN2C(=O)c2c(Cl)cccc2-3)n1` registered an ED50 in data set [1] of 0.08 mg/kg. Also, the 50% lethal dose (LD50) in data set [2] fell in the range of 2000 to 4000 mg/kg. Further, the IC50 in data set [3] is 2.3 nM.

For `Cc1nnc(-c2ncn3c2[C@@H]2CCCN2C(=O)c2c(Cl)cccc2-3)o1`, the ED50 in data set [1] amounted to 2.7 mg/kg. Moreover, in data set [2], the LD50 was 312 to 625 mg/kg. In data set [3], this molecule came in with an IC50 of 8.4 nM.

In turn, `Cc1noc(-c2ncn3c2CN(C)C(=O)c2c(Cl)cccc2-3)n1` yielded an ED50 in data set [1] of 0.43 mg/kg. Besides, the LD50 in data set [2] was in the range of 1250 to 2500 mg/kg. This molecule also gave an IC50 in data set [3] of 3.9 nM.

In data set [1], `O=C1c2c(Cl)cccc2-n2cnc(-c3noc(C(F)(F)F)n3)c2[C@@H]2CCCN12` gave an ED50 of 1.2 mg/kg. The IC50 in data set [3] worked out at 9.6 nM.

Molecule `CN1Cc2c(-c3nc(C4CC4)no3)ncn2-c2cccc(Cl)c2C1=O` displayed a median effective dose (ED50) in data set [1] of 0.034 mg/kg. The molecule further returned an IC50 in data set [3] of 4.5 nM.

`O=C1c2c(Cl)cccc2-n2cnc(-c3nc(C4CC4)no3)c2[C@@H]2CCCN12` registered an ED50 in data set [1] of 0.2 mg/kg. In addition, the LD50 in data set [2] fell in the range of 1250 to 2500 mg/kg. For the same molecule, the IC50 in data set [3] was found to be 2.2 nM.

On to `CN1Cc2c(-c3nc(C4CC4)no3)ncn2-c2ccc(F)cc2C1=O`, for which the 50% effect level in data set [1] (ED50) was put at a dose of 0.23 mg/kg. This molecule displayed an IC50 in data set [3] of 5.6 nM.

On to `COCc1noc(-c2ncn3c2[C@@H]2CCCN2C(=O)c2c(Cl)cccc2-3)n1`, for which the ED50 in data set [1] was determined as 0.39 mg/kg. In data set [3], this molecule came in with a 50% inhibitory concentration (IC50) of 5.2 nM.

In data set [1], `Cc1noc(-c2ncn3c2C2CCN2C(=O)c2c(Cl)cccc2-3)n1` (racemic) returned an ED50 of 0.32 mg/kg. In data set [3], this molecule registered an IC50 of 10 nM.

On to `Cc1noc(-c2ncn3c2[C@@H]2CCCN2C(=O)c2c-3ccc(F)c2Cl)n1` [Example 4, (S)-8-chloro-7-fluoro-11,12,13,13a-tetrahydro-1-(3-methyl-1,2,4-oxadiazol-5-yl)-9H-imidazo[1,5-a]pyrrolo[2,1-c][1,4]benzodiazepin-9-one], for which, in data set [1], the ED50 amounted to 0.082 mg/kg. This molecule came in with a median lethal dose (LD50) in data set [2] of 1250 to 2500 mg/kg. Moreover, in data set [3], the IC50 was 5.2 nM.

On to `Cc1noc(-c2ncn3c2[C@@H]2CCCN2C(=O)c2c(Br)cccc2-3)n1` [Example 5, (S)-8-bromo-11,12,13,13a-tetrahydro-1-(3-methyl-1,2,4-oxadiazol-5-yl)9H-imidazo[1,5-a]pyrrolo[2,1-c][1,4] benzodiazepin-9-one], for which the ED50 in data set [1] is 0.068 mg/kg. In data set [2], this molecule gave an LD50 of 2500 to 5000 mg/kg. Besides, the 50% inhibitory concentration (IC50) in data set [3] amounted to 2.1 nM.

As for `Cc1noc(-c2ncn3c2[C@@H]2CCN2C(=O)c2c-3cccc2C(F)(F)F)n1` [Example 9, (S)-12,12a-dihydro-1-(3-methyl-1,2,4-oxadiazol-5-yl)-8-(trifluoromethyl)-9H,11H-azeto[2,1-c]imidazo[1,5-a][1,4]benzodiazepin-9-one], in data set [1], the ED50 was determined as 0.021 mg/kg. The IC50 in data set [3] was 3.7 nM.

In turn, `CON=Cc1ncn2c1[C@@H]1CCN1C(=O)c1c(Cl)cccc1-2` [Example 23, (S)-8-chloro-12,12a-dihydro-9-oxo-9H,11H-azeto[2,1-c]imidazo[1,5-a][1,4]benzodiazepine-1-carboxaldehyde O-methyl oxime] displayed an ED50 in data set [1] of 0.63 mg/kg. Besides, the half-inhibitory concentration (IC50) in data set [3] turned out to be 10 nM.

Broadly, the ED50 is the midpoint of the dose-response relation. Read a low ED50 as an effect at a small dose. The LD50 is the dose expected to kill half of the subjects tested. A low value points to a more toxic substance. Usually IC50 stands for the concentration needed to halve the response being measured. Read a high IC50 as a need for much substance.
